How the values were obtained:
OXA-11 = biological target: T1, OXA-11 (Pseudomonas aeruginosa, UniProt Q06778); assay: β-lactamase inhibitory activity, determination of IC50 (nitrocefin hydrolysis); assay type: biochemical; details: class (D); nitrocefin 200 μM, 30 min pre-incubation; read-out: IC50 β-lactamase OXA-11
T1 construct: made in house; host or cells: E. coli

KPC-2 = biological target: T2, KPC-2 (Klebsiella pneumoniae, UniProt Q9F663); assay: as above; assay type: biochemical; details: class (A); nitrocefin 200 μM, 30 min pre-incubation; read-out: IC50 β-lactamase KPC-2
T2 construct: made in house; host or cells: E. coli

[1] = system: E. coli 190317 (TEM-1, SHV-12, CTX-M-15, OXA-1); assay: MIC of compounds alone, broth microdilution; assay type: cell-based; details: strain 190317 (E. coli)
In short: (§1)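 Compounds were dissolved in DMSO and spotted onto plates. Log-phase cells were then added at 5×10^5 cfu/mL in cation-adjusted Mueller-Hinton broth, incubated 16-20 h at 35° C, and the MIC was scored visually as the lowest growth-inhibiting concentration.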

[2] = system: E. coli 131119 (TEM-1, OXA-48); assay: MIC of compounds alone, broth microdilution; assay type: cell-based; details: strain 131119 (E. coli)
In short: as §1

[3] = system: K. pneumoniae BAA-1898 (TEM-1, SHV-11, SHV-12, KPC-2); assay: MIC of compounds alone, broth microdilution; assay type: cell-based; details: strain BAA-1898 (K. pneumoniae)
In short: as §1

[4] = system: P. aeruginosa CIP107051 (TEM-24); assay: MIC of compounds alone, broth microdilution; assay type: cell-based; details: strain CIP107051 (P. aeruginosa)
In short: as §1

E. cloacae P99 (AmpC) [5] = assay: MIC of compounds alone, broth microdilution; assay type: cell-based; details: strain P99 (E. cloacae)
In short: as §1

E. coli RGN238 (OXA-1) [6] = assay: MIC of compounds alone, broth microdilution; assay type: cell-based; details: strain RGN238 (E. coli)
In short: as §1

[7] = system: K. pneumoniae 6299 (TEM-1, SHV-11, OXA-163); assay: MIC of compounds alone, broth microdilution; assay type: cell-based; details: strain 6299 (K. pneumoniae)
In short: as §1

OXA-1 = biological target: T3, OXA-1 (Escherichia coli, UniProt P13661); assay: β-lactamase inhibitory activity, determination of IC50 (nitrocefin hydrolysis); assay type: biochemical; details: class (D); nitrocefin 200 μM, 30 min pre-incubation; read-out: IC50 β-lactamase OXA-1
T3 construct: made in house; host or cells: E. coli

[8] = biological target: CMY-37 (Citrobacter freundii); assay: as above; assay type: biochemical; details: class (C); nitrocefin 200 μM, 30 min pre-incubation
AmpC (P99) = AmpC (P99) (Enterobacter cloacae, UniProt P05364); assay: as above; details: read-out: IC50 β-lactamase AmpC (P99); class (C); nitrocefin 200 μM, 30 min pre-incubation
OXA-15 = biological target: T4, OXA-15 (Pseudomonas aeruginosa, UniProt Q51574); assay: biochemical; details: class (D); nitrocefin 200 μM, 30 min pre-incubation; read-out: IC50 β-lactamase OXA-15
T4 construct: made in house; host or cells: E. coli

[9] = system: K. pneumoniae BAA-1898 (TEM-1, SHV-11, SHV-12, KPC-2); assay: MIC of ceftazidime (CAZ) in combination with compounds at 4 μg/mL, broth microdilution; assay type: cell-based; details: strain BAA-1898
Experimental: (§2) Method 2: MIC of Compounds and Synergy with Ceftazidime Against Bacterial Isolates (Table 2 and 3)
(§3) Compounds of the present invention were assessed against genotyped bacterial strains alone or in combination with the β-lactam ceftazidime (CAZ). In the assays, MICs of said compounds, or of ceftazidime at fixed concentrations of said compounds were determined by the broth microdilution method according to the Clinical Laboratory Standards Institute (CLSI-M7-A7). Briefly, compounds alone according to the invention were prepared in DMSO and spotted (2 μL each) on sterile polystyrene plates (Corning, 3788). Compounds and ceftazidime dilutions were prepared in DMSO and spotted (1 μL each) on sterile polystyrene plates (Corning, 3788). Log phase bacterial suspensions were adjusted to a final density of 5×10^5 cfu/mL in cation-adjusted Mueller-Hinton broth (Becton-Dickinson) and added to each well (98 μL). Microplates were incubated for 16-20 h at 35° C. in ambient air. The MIC of the compounds was defined as the lowest concentration of said compounds that prevented bacterial growth as read by visual inspection. The MIC of ceftazidime at each compound concentration was defined as the lowest concentration of ceftazidime that prevented bacterial growth as read by visual inspection.

[10] = system: P. aeruginosa CIP107051 (TEM-24); assay: as above; assay type: cell-based; details: strain CIP107051
Experimental: as §2, §3

E. cloacae P99 (AmpC) [11] = assay: as above; assay type: cell-based; details: strain P99
Experimental: as §2, §3

[12] = system: K. pneumoniae 6299 (TEM-1, SHV-11, OXA-163); assay: as above; assay type: cell-based; details: strain 6299
Experimental: as §2, §3

AmpC P. aeruginosa = AmpC P. aeruginosa (Pseudomonas aeruginosa, UniProt P24735); assay: β-lactamase inhibitory activity, determination of IC50 (nitrocefin hydrolysis); details: read-out: IC50 β-lactamase AmpC (PAE); class (C); nitrocefin 200 μM, 30 min pre-incubation
OXA-48 = biological target: T5, OXA-48 (Klebsiella pneumoniae, UniProt Q6XEC0); assay: as above; assay type: biochemical; details: class (D); nitrocefin 200 μM, 30 min pre-incubation; read-out: IC50 β-lactamase OXA-48
T5 construct: made in house; host or cells: E. coli

CTX-M-15 = biological target: T6, CTX-M-15 (Escherichia coli, UniProt Q9EXV5); assay: as above; assay type: biochemical; details: class (A); nitrocefin 200 μM, 30 min pre-incubation; read-out: IC50 β-lactamase CTX-M-15
T6 construct: made in house; host or cells: E. coli

TEM-1 = biological target: T7, TEM-1 (Escherichia coli, UniProt P62593); assay: as above; assay type: biochemical; details: class (A); nitrocefin 200 μM, 30 min pre-incubation; read-out: IC50 β-lactamase TEM-1
T7 construct: made in house; host or cells: E. coli

SHV-1 = biological target: T8, SHV-1 (Klebsiella pneumoniae, UniProt P0AD64); assay: as above; assay type: biochemical; details: class (A); nitrocefin 200 μM, 30 min pre-incubation; read-out: IC50 β-lactamase SHV-1
T8 construct: made in house; host or cells: E. coli

[13] = system: E. coli 190317 (TEM-1, SHV-12, CTX-M-15, OXA-1); assay: microbe, parasite or virus in culture; assay type: cell-based; details: strain 190317
Experimental: as §2, §3

[14] = system: E. coli UFR41 (TEM-1, CTX-M-15, CMY-2, OXA-1, NDM-4); assay: MIC of ceftazidime (CAZ) in combination with compounds at 4 μg/mL, broth microdilution; assay type: cell-based; details: Escherichia coli, read-out: MIC of CAZ
Experimental: as §2, §3

[15] = system: E. coli 131119 (TEM-1, OXA-48); assay: as above; assay type: cell-based; details: Escherichia coli; strain 131119; CAZ alone, no compound
Experimental: as §2, §3

[16] = system: E. cloacae 260508 (TEM-1, CTX-M-15); assay: as above; assay type: cell-based; details: Enterobacter cloacae; strain 260508; CAZ alone, no compound
Experimental: as §2, §3

[17] = system: E. cloacae UFR51 (SHV-12, IMP-8); assay: as above; assay type: cell-based; details: Enterobacter cloacae, read-out: MIC of CAZ
Experimental: as §2, §3

[18] = system: E. coli UFR74 (SHV-1, DHA-1); assay: as above; assay type: cell-based; details: Escherichia coli; strain UFR74; CAZ alone, no compound
Experimental: as §2, §3

[19] = system: E. cloacae UFR85 (TEM-1, CTX-M-15, AmpC); assay: as above; assay type: cell-based; details: Enterobacter cloacae; strain UFR85; CAZ alone, no compound
Experimental: as §2, §3

[20] = system: K. pneumoniae UFR39 (CTX-M-15, NDM-1); assay: as above; assay type: cell-based; details: Klebsiella pneumoniae; strain UFR39; CAZ alone, no compound
Experimental: as §2, §3

E. coli RGN238 (OXA-1) [21] = assay: as above; assay type: cell-based; details: Escherichia coli; strain RGN238; CAZ alone, no compound
Experimental: as §2, §3

[22] = system: K. pneumoniae 200047 (TEM-1, SHV-32, CTX-M-15, OXA-1); assay: as above; assay type: cell-based; details: Klebsiella pneumoniae; strain 200047; CAZ alone, no compound
Experimental: as §2, §3

[23] = system: E. coli UFR18 (CTX-M-15, OXA-204); assay: as above; assay type: cell-based; details: Escherichia coli, read-out: MIC of CAZ
Experimental: as §2, §3

[24] = system: E. coli UFR61O (TEM-1, KPC-2); assay: as above; assay type: cell-based; details: Escherichia coli; strain UFR61O; CAZ alone, no compound
Experimental: as §2, §3

[25] = system: K. pneumoniae UFR24 (TEM-1, SHV-2, SHV-11, OXA-1, OXA-48, OXA-47); assay: as above; assay type: cell-based; details: Klebsiella pneumoniae, read-out: MIC of CAZ
Experimental: as §2, §3

[26] = system: E. coli UFR32 (TEM-1, VEB-1, OXA-10); assay: as above; assay type: cell-based; details: Escherichia coli, read-out: MIC of CAZ
Experimental: as §2, §3

[27] = system: K. oxytoca UFR21 (TEM-1, CTX-M-15, OXA-48); assay: as above; assay type: cell-based; details: Klebsiella oxytoca; strain UFR21; CAZ alone, no compound
Experimental: as §2, §3

[28] = system: K. pneumoniae 160143 (TEM-1, SHV-1, CTX-M-15, KPC-2, OXA-1); assay: as above; assay type: cell-based; details: Klebsiella pneumoniae; strain 160143; CAZ alone, no compound
Experimental: as §2, §3

[29] = system: E. cloacae UFR70 (TEM-1, CTX-M-15, CMY-2, OXA-1, Porin loss); assay: as above; assay type: cell-based; details: Enterobacter cloacae, read-out: MIC of CAZ
Experimental: as §2, §3

[30] = system: K. pneumoniae UFR77 (CMY-2); assay: as above; assay type: cell-based; details: Klebsiella pneumoniae; strain UFR77; CAZ alone, no compound
Experimental: as §2, §3

[31] = system: K. pneumoniae UFR68 (TEM-1, SHV-11, CTX-M-15, KPC-3); assay: microbe, parasite or virus in culture; assay type: cell-based; details: Klebsiella pneumoniae, read-out: MIC of CAZ
Experimental: as §2, §3

[32] = MIC of CAZ with compound fixed at 4 μg/mL

T1 sequence (Q06778 21-266): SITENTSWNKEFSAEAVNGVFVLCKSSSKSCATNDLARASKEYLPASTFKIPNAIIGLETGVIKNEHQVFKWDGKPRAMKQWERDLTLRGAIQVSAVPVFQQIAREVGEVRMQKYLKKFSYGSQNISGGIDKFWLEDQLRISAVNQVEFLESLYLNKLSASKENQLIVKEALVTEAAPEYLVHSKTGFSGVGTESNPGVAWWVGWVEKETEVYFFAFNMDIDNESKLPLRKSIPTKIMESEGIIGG
T5 sequence (Q6XEC0 23-265 limits assumed): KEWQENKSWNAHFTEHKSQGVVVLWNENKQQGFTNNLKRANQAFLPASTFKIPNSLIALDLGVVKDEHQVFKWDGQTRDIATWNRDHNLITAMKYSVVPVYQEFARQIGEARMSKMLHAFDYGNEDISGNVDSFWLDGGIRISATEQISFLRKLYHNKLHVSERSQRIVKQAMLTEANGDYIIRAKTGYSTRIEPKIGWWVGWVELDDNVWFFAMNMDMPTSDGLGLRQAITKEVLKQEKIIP
T7 sequence (P62593 24-286 limits assumed): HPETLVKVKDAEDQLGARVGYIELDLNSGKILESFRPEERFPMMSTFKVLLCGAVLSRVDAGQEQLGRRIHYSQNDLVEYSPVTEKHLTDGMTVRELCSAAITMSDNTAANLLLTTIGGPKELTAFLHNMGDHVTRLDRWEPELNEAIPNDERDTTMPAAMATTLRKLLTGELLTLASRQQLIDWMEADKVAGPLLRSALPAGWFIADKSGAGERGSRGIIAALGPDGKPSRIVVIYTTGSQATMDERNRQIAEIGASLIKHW
Chain of CMY-37 (Citrobacter freundii) (A0A9R8 21-381): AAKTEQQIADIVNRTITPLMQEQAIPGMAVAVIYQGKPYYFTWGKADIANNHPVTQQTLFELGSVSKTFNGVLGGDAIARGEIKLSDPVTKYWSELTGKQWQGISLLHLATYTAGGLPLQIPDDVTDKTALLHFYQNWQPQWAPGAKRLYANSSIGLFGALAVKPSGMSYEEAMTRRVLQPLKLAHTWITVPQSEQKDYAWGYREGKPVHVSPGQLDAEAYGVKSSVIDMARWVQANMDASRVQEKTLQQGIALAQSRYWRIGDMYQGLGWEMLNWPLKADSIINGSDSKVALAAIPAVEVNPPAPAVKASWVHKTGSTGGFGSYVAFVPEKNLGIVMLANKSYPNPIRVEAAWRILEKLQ
T6 sequence (Q9EXV5 entry or part of it): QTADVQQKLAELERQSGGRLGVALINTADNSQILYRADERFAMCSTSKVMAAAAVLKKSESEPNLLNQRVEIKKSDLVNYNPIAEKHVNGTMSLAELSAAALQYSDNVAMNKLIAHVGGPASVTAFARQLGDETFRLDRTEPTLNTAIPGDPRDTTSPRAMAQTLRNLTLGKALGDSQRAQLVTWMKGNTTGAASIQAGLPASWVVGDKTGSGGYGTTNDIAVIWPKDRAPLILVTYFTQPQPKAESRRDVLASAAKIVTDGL
T4 sequence (Q51574 22-275): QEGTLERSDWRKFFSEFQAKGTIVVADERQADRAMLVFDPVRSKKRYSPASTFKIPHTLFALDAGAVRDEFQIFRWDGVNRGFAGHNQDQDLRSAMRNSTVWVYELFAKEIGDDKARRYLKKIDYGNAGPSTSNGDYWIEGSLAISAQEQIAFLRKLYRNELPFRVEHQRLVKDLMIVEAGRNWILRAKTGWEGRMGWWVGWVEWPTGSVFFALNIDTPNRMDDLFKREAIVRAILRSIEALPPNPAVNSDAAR
T8 sequence (P0AD64 22-286): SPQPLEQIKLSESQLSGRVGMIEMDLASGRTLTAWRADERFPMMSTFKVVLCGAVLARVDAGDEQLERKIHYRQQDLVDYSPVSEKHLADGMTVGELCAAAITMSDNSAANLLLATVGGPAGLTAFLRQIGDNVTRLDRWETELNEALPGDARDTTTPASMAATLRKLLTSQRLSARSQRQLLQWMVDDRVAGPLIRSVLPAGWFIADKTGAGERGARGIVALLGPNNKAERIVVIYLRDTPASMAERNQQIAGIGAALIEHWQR
Chain of AmpC P. aeruginosa (P24735 27-397): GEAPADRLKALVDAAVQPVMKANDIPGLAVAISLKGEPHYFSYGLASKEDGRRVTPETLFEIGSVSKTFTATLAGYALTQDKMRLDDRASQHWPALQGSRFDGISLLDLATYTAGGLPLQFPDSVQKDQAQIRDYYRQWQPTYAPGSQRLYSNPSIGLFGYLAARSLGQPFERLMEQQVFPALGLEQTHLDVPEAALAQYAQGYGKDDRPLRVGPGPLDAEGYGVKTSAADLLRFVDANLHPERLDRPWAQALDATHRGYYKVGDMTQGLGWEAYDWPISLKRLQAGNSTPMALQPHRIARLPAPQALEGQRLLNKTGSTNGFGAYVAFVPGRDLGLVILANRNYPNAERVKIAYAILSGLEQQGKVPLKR
T3 sequence (P13661 26-276): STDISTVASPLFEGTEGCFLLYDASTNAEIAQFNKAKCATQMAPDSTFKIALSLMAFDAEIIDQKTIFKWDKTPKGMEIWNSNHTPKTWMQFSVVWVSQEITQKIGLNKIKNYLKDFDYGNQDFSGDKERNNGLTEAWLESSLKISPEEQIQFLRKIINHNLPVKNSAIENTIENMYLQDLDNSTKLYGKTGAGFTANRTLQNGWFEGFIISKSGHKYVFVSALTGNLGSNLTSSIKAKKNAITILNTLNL
Chain of AmpC (P99) (P05364 21-381): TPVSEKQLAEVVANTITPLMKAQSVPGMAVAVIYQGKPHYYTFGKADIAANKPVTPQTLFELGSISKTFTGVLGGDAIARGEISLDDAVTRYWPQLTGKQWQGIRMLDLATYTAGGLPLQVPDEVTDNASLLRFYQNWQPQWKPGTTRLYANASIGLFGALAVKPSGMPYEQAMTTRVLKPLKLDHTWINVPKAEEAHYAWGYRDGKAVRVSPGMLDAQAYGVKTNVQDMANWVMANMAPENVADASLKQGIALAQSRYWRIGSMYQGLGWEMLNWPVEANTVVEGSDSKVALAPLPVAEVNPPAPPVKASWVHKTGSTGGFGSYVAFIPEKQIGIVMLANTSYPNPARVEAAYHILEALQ
T2 sequence (Q9F663 25-293 limits assumed): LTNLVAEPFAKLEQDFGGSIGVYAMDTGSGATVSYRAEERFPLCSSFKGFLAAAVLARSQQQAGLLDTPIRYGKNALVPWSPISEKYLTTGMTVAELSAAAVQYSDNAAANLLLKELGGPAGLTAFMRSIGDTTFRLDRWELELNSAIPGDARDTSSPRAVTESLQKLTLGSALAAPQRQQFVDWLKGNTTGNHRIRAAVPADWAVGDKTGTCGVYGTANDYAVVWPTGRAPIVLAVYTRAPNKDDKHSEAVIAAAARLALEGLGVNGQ

COC(=O)c1ncsc1C1=CCN2CC1N(OS(=O)(=O)[O-])C2=O.[Na+] (stereo not shown) [Example 22, Sodium [4-(4-(2-methoxy-2-oxo-methyl)-thiazol-5-yl)-7-oxo-1,6-diazabicyclo[3.2.1]oct-3-en-6-yl] sulfate]
IC50 (OXA-11): 370 nM | IC50 (KPC-2): 340 nM | MIC compounds of the invention alone [1]: >32 µg/mL | MIC compounds of the invention alone [2]: >32 µg/mL | MIC compounds of the invention alone [3]: >32 µg/mL | MIC compounds of the invention alone [4]: >32 µg/mL | MIC compounds of the invention alone (E. cloacae P99 (AmpC) [5]): >32 µg/mL | MIC compounds of the invention alone (E. coli RGN238 (OXA-1) [6]): >32 µg/mL | MIC compounds of the invention alone [7]: >32 µg/mL | IC50 (OXA-1): 68 nM | IC50 [8]: 84 nM | IC50 (AmpC (P99)): 160 nM | IC50 (OXA-15): 12 nM | MIC combination of CAZ and compounds of the invention at 4 μg/mL [9, 32]: 128 µg/mL | MIC combination of CAZ and compounds of the invention at 4 μg/mL [10, 32]: >128 µg/mL | MIC combination of CAZ and compounds of the invention at 4 μg/mL (E. cloacae P99 (AmpC) [11]; [32]): 128 µg/mL | MIC combination of CAZ and compounds of the invention at 4 μg/mL [12, 32]: 128 µg/mL | IC50 (AmpC P. aeruginosa): 5500 nM | IC50 (OXA-48): 3.9 nM | IC50 (CTX-M-15): 6.5 nM | IC50 (TEM-1): 5 nM | IC50 (SHV-1): 19 nM | MIC combination of CAZ and compounds of the invention at 4 μg/mL [13, 32]: 16 µg/mL

CC(C)(O/N=C(\C(=O)N[C@@H]1C(=O)N2C(C(=O)[O-])=C(C[n+]3ccccc3)CS[C@H]12)c1csc(N)n1)C(=O)O [ceftazidime]
MIC [14]: > 128 µg/mL | MIC [15]: 0.5 µg/mL | MIC ([9]; Klebsiella pneumoniae, BAA1898, CAZ alone, no compound): 256 µg/mL | MIC [16]: 128 µg/mL | MIC [17]: > 128 µg/mL | MIC [18]: 64 µg/mL | MIC ([10]; Pseudomonas aeruginosa, CAZ alone, no compound): 256 µg/mL | MIC (E. cloacae P99 (AmpC) [11]; Enterobacter cloacae, CAZ alone, no compound): 128 µg/mL | MIC [19]: 128 µg/mL | MIC [20]: > 1020 µg/mL | MIC (E. coli RGN238 (OXA-1) [21]): 0.5 µg/mL | MIC [22]: 128 µg/mL | MIC [23]: > 128 µg/mL | MIC [24]: 128 µg/mL | MIC [25]: > 128 µg/mL | MIC [26]: > 128 µg/mL | MIC [27]: 128 µg/mL | MIC [28]: 128 µg/mL | MIC [29]: > 128 µg/mL | MIC [30]: 64 µg/mL | MIC ([12]; Klebsiella pneumoniae, CAZ alone, no compound): 256 µg/mL | MIC ([13]; Escherichia coli, CAZ alone, no compound): 128 µg/mL | MIC [31]: > 128 µg/mL

Source: US10183943B2, “Heterocyclic compounds and their use in preventing or treating bacterial infections” (MUTABILIS, priority 2015, dated 2019)
